Experimental data published in PMC8103899, “Allyl Isothiocyanate: A TAS2R38 Receptor-Dependent Immune Modulator at the Interface Between Personalized Medicine and Nutrition” (Frontiers in Immunology, 2021).

Assays:
E. coli K-12 = test: Bactericidal activity of PBMC co-incubated with E. coli K-12 (DiBAC4(3) depolarization); format: cell-based, Escherichia coli; details: MOI 0.5
Experimental: E. coli K-12 bacteria were grown in Luria-Bertani medium at 37°C to mid-logarithmic-phase as determined by OD600. Next, PBMC (1x10^6/mL) were incubated with E. coli K-12 at MOI 0.5 in RPMI 1640 medium supplemented with 2% heat-inactivated fetal calf serum and exposed to the test compounds for 120 min in a humidify condition (5% CO2, 37°C). Thereafter, 1 µg/mL of the membrane potential dye DiBAC4(3) was added and incubated for 10 min at room temperature in the dark. Subsequently, the cells were washed once with PBS and centrifuged at 4500 x g for 10 min. The percentage of depolarized bacteria was determined using a FACSCalibur™ flow cytometer with an excitation wavelength of 493 nm.
Figure 3 AITC stimulates NO production and exerts bactericidal activity in dependence of the TAS2R38 haplotype. […] Fluorescence signals (ex 488 nm, em 530± 30 nm) were monitored using a FACSCalibur™. The median fluorescence intensity (MFI) of each sample was calculated using FlowJo software (Ashland, Oregon, USA). […] Cell membrane potential depolarization was determined by staining bacteria with 1 µg/ml DiBAC4(3) for 10 min, in the dark at room temperature. […] Significance of difference was calculated relative to the respective control by one-way ANOVA. […]

TNF-alpha mRNA = TNF-alpha mRNA expression in LPS stimulated PBMC (qRT-PCR); format: cell-based, human; details: LPS stimulated PBMC from PAV/PAV subjects, transient
Experimental: Figure 5 In bacterial LPS stimulated PBMC, AITC triggers MAPK activation and TNF-α inhibition in dependence of the TAS2R38 genotype. PBMC were exposed to AITC or 0.01% DMSO (SC) together with 100 pg/mL LPS. (A) Representative immunoblots are given. Densitometric analysis was done to quantify the immunoblots using Quantity One software (Bio-Rad, Munich, Germany) and normalized against β-actin, which was used as loading control. (B, C) Cytokine secretion at 3 and 24 h was analyzed using ELISA kits. (D) Time kinetic of TNF-α mRNA expression. Results are means + SD and given as fold of the solvent control. Results were calculated relative to the corresponding solvent control (SC, 0.01% DMSO). Significance of difference was determined compared to the respective SC by one-way ANOVA, *p < 0.05, **p < 0.01.

[1] = system: TNF-α, IL-1β, IL-2, IL-6, IL17-A, IL-10; test: Cytokine secretion of CD3/CD28 mAbs stimulated PBMC (MACSplex / ELISA); format: cell-based, human
Experimental: PBMC (1x10^6/mL) cultured in RPMI 1640 medium supplemented with 10% heat-inactivated fetal calf serum, 2 mM L-glutamine, 100 U/ml penicillin/streptomycin were stimulated with 0.5 ng/ml CD3/CD28 MAbs and exposed to the test compounds. After 24 h, supernatants were collected and stored at -80°C until analysis using the human MACSplex cytokine 12-kit (Miltenyi Biotec GmbH, Bergisch Gladbach, Germany) according to manufacturer’s protocol to quantify cytokine secretion. Supernatants were also used for photometric quantification by the human TNF-alpha or IL-1β ELISA Ready-Set-Go kit from eBIoscience (Frankfurt, Germany) according to the manufacturer’s instructions.
Figure 6 In […] PBMC, AITC triggers MAPK activation as well as TNF-α release in dependence of the TAS2R38 genotype. PBMC were exposed to AITC or 0.01% DMSO (SC) together with 0.5 ng/mL CD3/CD28 MAbs for 24h (A, B). Cytokine secretion was analyzed using the human MACSplex cytokine 12-kit or ELISA kits. Results are mean values + SD and given as fold of the solvent control. Significance of difference was determined compared to the respective SC as determined by one-way ANOVA, *p < 0.05, **p < 0.01.

C=CCN=C=S [AITC, allyl isothiocyanate]
bactericidal activity (E. coli K-12; AVI/AVI cells): no effect | bactericidal activity (E. coli K-12; PAV/PAV cells): increased bactericidal activity | inhibition of TNF-alpha mRNA expression (TNF-alpha mRNA): 50% | modulation of IL-2, IL-6, IL17-A and IL-10 ([1]; CD3/CD28 mAbs stimulated PBMC): not clearly genotype dependent | effect on TNF-α ([1]; CD3/CD28 mAbs stimulated cells, AVI/AVI group, 24h): No effect | TNF-α secretion ([1]; CD3/CD28 mAbs stimulated cells, PAV/PAV, 24h): Similar, but less strong effects | IL-1β ([1]; CD3/CD28 mAbs stimulated, PAV/PAV vs. AVI/AVI cells): differential inhibition
